In patent publication US10959986B2, “Inhibitors of indoleamine 2,3-dioxygenase and methods of their use” (BRISTOL-MYERS SQUIBB COMPANY, priority 2018, dated 2021):
Where two headings read alike, the source gives them in different places.

What was measured:
human IDO1 = target: T1, human IDO1 (Homo sapiens, UniProt P14902); assay: HEK293 cell-based indoleamine 2,3-dioxygenase (IDO) assay; conditions: HEK293 cells stably expressing human IDO1, 20 hours incubation; read-out: IDO1 HEK Human IC50
T1 construct: expressed in transfected cells
Experimental: Assessment of Inhibitor Activity in HEK293 Cell-Based Indoleamine 2,3-Dioxygenase (IDO) Assay.
HEK293 cells were transfected with a pCDNA-based mammalian expression vector harboring human IDO1 cDNA (NM 002164.2) by electroporation. They were cultured in medium (DMEM with 10% FBS) containing 1 mg/ml G418 for two weeks. Clones of HEK293 cells that stably expressed human IDO1 protein were selected and expanded for IDO inhibition assay.
The human IDO1/HEK293 cells were seeded at 10,000 cells per 50 μL per well with RPMI/phenol red free media contains 10% FBS in a 384-well black wall clear bottom tissue culture plate (Matrix Technologies LLC) 100 nL of certain concentration of compound was then added to each well using ECHO liquid handling systems. The cells were incubated for 20 hours in 37° C. incubator with 5% CO2.
The compound treatments were stopped by adding trichloroacetic acid (Sigma-Aldrich) to a final concentration at 0.2%. The cell plate was further incubated at 50° C. for 30 minute. The equal volume supernatant (20 μL) and 0.2% (w/v) Ehrlich reagent (4-dimethylaminobenzaldehyde, Sigma-Aldrich) in glacial acetic acid were mixed in a new clear bottom 384-well plate. This plate was then incubated at room temperature for 30 minute. The absorbance at 490 nm was measured on Envision plate reader.
Compound IC50 values were calculated using the counts of 500 nM of a reference standard treatment as one hundred percent inhibition, and counts of no compound but DMSO treatment as zero percent inhibition.

[1] = target: T2, indoleamine 2,3-dioxygenase (IDO) (Homo sapiens, UniProt P14902); assay: HeLa cell-based indoleamine 2,3-dioxygenase (IDO) assay; conditions: HeLa cells with IFNγ 25 ng/mL, 48 hour incubation, kynurenine production
T2 construct: media containing IFNγ (#285-IF/CF, R&D Systems) at a final concentration of 25 ng/mL; endogenous in cells; host or cells: HeLa (ATCC CCL-2), induced with IFN-gamma
Experimental: Assessment of Inhibitor Activity in HeLa Cell-Based Indoleamine 2,3-Dioxygenase (IDO) Assay.
HeLa (ATCCR CCL-2) cells were obtained from the ATCC® and cultured in Dulbecco's Modified Eagle Medium supplemented with 4.5 g/L glucose, […] L-glutamine and […] (#10-013-CV, Corning), 2 mM L-alanyl-L-glutamine dipeptide (#35050-061, Gibco), 100U/mL penicillin, 100 µg/mL streptomycin (#SV30010, HyClone) and 10% fetal bovine serum (#SH30071.03 HyClone). Cells were maintained in a humidified incubator at 37° C. in 5% CO2.
IDO activity was assessed as a function of kynurenine production as follows: HeLa cells were seeded in a 96-well culture plate at a density of 5,000 cells/well and allowed to equilibrate overnight. After 24 hours, the media was aspirated and replaced with media containing IFNγ (#285-IF/CF, R&D Systems) at a final concentration of 25 ng/mL. A serial dilution of each test compound was added to the cells in a total volume of 200 μL of culture medium. After a further 48 hour incubation, 170 μL of supernatant was transferred from each well to a fresh 96-well plate. 12.1 μL of 6. IN trichloroacetic acid (#T0699, Sigma-Aldrich) was added to each well and mixed, followed by incubation at 65° C. for 20 minutes to hydrolyze N-formylkynurenine, the product of indoleamine 2,3-dioxygenase, to kynurenine. The reaction mixture was then centrifuged for 10 mins at 500×g to sediment the precipitate. 100 μL of the supernatant was transferred from each well to a fresh 96-well plate. 100 μl of 2% (w/v) p-dimethylaminobenzaldehyde (#15647-7, Sigma-Aldrich) in acetic acid (#A6283, Sigma-Aldrich) was added to each well mixed and incubated at room temperature for 20 mins. Kynurenine concentrations were determined by measuring absorbance at 480 nm and calibrating against an L-kynurenine (#K8625, Sigma-Aldrich) standard curve using a SPECTRAMAX® M2e microplate reader (Molecular Devices). The percentage activity at each inhibitor concentration was determined and IC50 values assessed using nonlinear regression.

[2] = read-out: IDO Hela IC50 potency class (A < 50, B < 250, C < 2000)

T2 sequence (P14902 whole entry): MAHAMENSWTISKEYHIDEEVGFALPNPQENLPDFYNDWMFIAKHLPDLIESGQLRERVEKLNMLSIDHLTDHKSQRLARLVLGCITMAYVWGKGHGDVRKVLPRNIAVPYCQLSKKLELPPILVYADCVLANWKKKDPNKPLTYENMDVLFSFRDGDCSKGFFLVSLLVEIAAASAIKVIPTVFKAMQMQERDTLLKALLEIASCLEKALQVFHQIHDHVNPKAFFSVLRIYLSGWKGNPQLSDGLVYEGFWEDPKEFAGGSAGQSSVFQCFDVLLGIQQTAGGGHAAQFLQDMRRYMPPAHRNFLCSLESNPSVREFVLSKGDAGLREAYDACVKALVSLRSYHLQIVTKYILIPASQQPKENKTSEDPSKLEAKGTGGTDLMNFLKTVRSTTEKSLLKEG
T1 sequence (P14902 whole entry): as above

| IC50 (human IDO1) | IC50 ([1]; read-out: IDO Hela IC50) | IC50 [1, 2] | Compound |
| --- | --- | --- | --- |
| 0.499 µM | – | – | CC[C@@H](CC(=O)O)c1ccc([C@H]2CC[C@@H](c3ccccc3)CC2)c(NC(=O)Nc2ccc(C)cc2)c1 (single isomer, unassigned) [Example 1-1, 3-(4-(4-phenylcyclohexyl)-3-(3-(p-tolyl)ureido)phenyl)pentanoic acid] |
| 1.6 µM | – | – | CC[C@@H](CC(=O)O)c1ccc([C@H]2CC[C@@H](c3ccccc3)CC2)c(NC(=O)Nc2ccc(C)cc2)c1 (single isomer, unassigned) [Example 1-2, 3-(4-(4-phenylcyclohexyl)-3-(3-(p-tolyl)ureido)phenyl)pentanoic acid] |
| – | ≥ 1 µM | 0.25 to 2 µM | CCOc1ncc(Nc2cc([C@H](CC)CC(=O)O)ccc2-c2ccncc2F)cn1 (single isomer, unassigned) [Example 52] |
| – | 0.03 µM | – | CCOc1ncc(Nc2cc([C@H](CC)CC(=O)O)ccc2-c2ccc(OC)cc2F)cn1 (single isomer, unassigned) [Example 53] |
| – | 0.09 µM | – | CCOc1ncc(Nc2cc([C@H](CC)CC(=O)O)ccc2-c2c(C)noc2C)cn1 (single isomer, unassigned) [Example 54] |
| – | ≥ 1 µM | 0.25 to 2 µM | CCOc1ncc(Nc2cc([C@H](CC)CC(=O)O)ccc2-c2cnn(CCN3CCOCC3)c2)cn1 (single isomer, unassigned) [Example 55] |
| – | 0.39 µM | – | CCOc1ncc(Nc2cc([C@H](CC)CC(=O)O)ccc2C2=CC3CCC(C2)N3C(=O)OC(C)(C)C)cn1 (single isomer, unassigned) [Example 56] |
| – | 0.11 µM | – | CCc1ncc(Nc2cc([C@H](CC)CC(=O)O)ccc2-c2sc(C)nc2C)cn1 (single isomer, unassigned) [Example 57] |
| – | 0.39 µM | – | CCc1ncc(Nc2cc([C@@H](CC)CC(=O)O)ccc2-c2sc(C)nc2C)cn1 (single isomer, unassigned) [Example 58] |
| – | 0.22 µM | – | COC[C@@H](CC(=O)O)c1ccc(-c2sc(C)nc2C)c(Nc2ccc(C#N)cc2)c1 (single isomer, unassigned) [Example 59] |
| – | 0.01 µM | – | CCOc1ncc(Nc2cc([C@H](CC)CC(=O)O)ccc2-c2sc(C)nc2C)cn1 (single isomer, unassigned) [Example 61] |
| – | 0.89 µM | – | CCOc1ncc(Nc2cc([C@H](CC)CC(=O)O)ccc2-c2ccc(C#N)cn2)cn1 (single isomer, unassigned) [Example 62] |
| – | 0.7 µM | – | CCOc1ncc(Nc2cc([C@H](CC)CC(=O)O)ccc2-c2ncc(F)cn2)cn1 (single isomer, unassigned) [Example 63] |
| – | ≥ 1 µM | 0.25 to 2 µM | CCOc1ncc(Nc2cc([C@H](CC)CC(=O)O)ccc2-c2cnc(OCC)nc2)cn1 (single isomer, unassigned) [Example 64] |
| – | ≥ 1 µM | 0.25 to 2 µM | CCOc1ncc(Nc2cc([C@H](CC)CC(=O)O)ccc2-c2ccc3nc(C)oc3c2)cn1 (single isomer, unassigned) [Example 65] |
| – | 0.75 µM | – | CCOc1ncc(Nc2cc([C@H](CC)CC(=O)O)ccc2-c2cccc(C(F)F)n2)cn1 (single isomer, unassigned) [Example 66] |
| – | ≥ 1 µM | 0.25 to 2 µM | CCOc1ncc(Nc2cc([C@H](CC)CC(=O)O)ccc2-c2c[nH]c3cnccc23)cn1 (single isomer, unassigned) [Example 67] |
| – | 0.5 µM | – | CCOc1ncc(Nc2cc([C@H](CC)CC(=O)O)ccc2-c2ccc3nc(C)sc3c2)cn1 (single isomer, unassigned) [Example 68] |
| – | 0.11 µM | – | CCOc1ncc(Nc2cc([C@H](CC)CC(=O)O)ccc2-c2ncc(C)cn2)cn1 (single isomer, unassigned) [Example 69] |

| IC50 (human IDO1) | IC50 ([1]; read-out: IDO Hela IC50) | IC50 [1, 2] | Compound |
| --- | --- | --- | --- |
| – | 0.23 µM | – | CCOc1ncc(Nc2cc([C@H](CC)CC(=O)O)ccc2-c2ccc(Cl)cc2F)cn1 (single isomer, unassigned) [Example 70] |
| – | 0.11 µM | – | CCOc1ncc(Nc2cc([C@H](CC)CC(=O)O)ccc2-c2ccc(Cl)cc2)cn1 (single isomer, unassigned) [Example 71] |
| – | 0.21 µM | – | CCOc1ncc(Nc2cc([C@H](CC)CC(=O)O)ccc2-c2ccc(Cl)c(F)c2)cn1 (single isomer, unassigned) [Example 72] |
| – | 0.45 µM | – | CCOc1cnc(-c2ccc([C@H](CC)CC(=O)O)cc2Nc2cnc(OCC)nc2)cn1 (single isomer, unassigned) [Example 74] |
| – | ≥ 1 µM | 0.25 to 2 µM | CCOc1ncc(Nc2cc([C@H](CC)CC(=O)O)ccc2-c2c(C)n[nH]c2C)cn1 (single isomer, unassigned) [Example 75] |
| – | 0.95 µM | – | CCOc1ncc(Nc2cc([C@H](CC)CC(=O)O)ccc2-c2nc3ccccc3s2)cn1 (single isomer, unassigned) [Example 76] |
| – | ≥ 1 µM | 0.25 to 2 µM | CCOc1ncc(Nc2cc([C@H](CC)CC(=O)O)ccc2-c2cn3ccccc3n2)cn1 (single isomer, unassigned) [Example 77] |
| – | ≥ 1 µM | 0.25 to 2 µM | CCOc1ncc(Nc2cc([C@H](CC)CC(=O)O)ccc2-c2ccc3nonc3c2)cn1 (single isomer, unassigned) [Example 78] |
| – | 0.4 µM | – | CCOc1ncc(Nc2cc([C@H](CC)CC(=O)O)ccc2-c2ccn3nccc3n2)cn1 (single isomer, unassigned) [Example 79] |
| – | ≥ 1 µM | 0.25 to 2 µM | CCOc1ncc(Nc2cc([C@H](CC)CC(=O)O)ccc2-c2ccc(C#N)c(OC)c2)cn1 (single isomer, unassigned) [Example 80] |
| – | 0.6 µM | – | CCOc1ncc(Nc2cc([C@H](CC)CC(=O)O)ccc2-c2c(C)nn(C)c2C)cn1 (single isomer, unassigned) [Example 81] |
| – | 0.11 µM | – | CCOc1ncc(Nc2cc([C@H](CC)CC(=O)O)ccc2-c2csc(-c3ccccc3)n2)cn1 (single isomer, unassigned) [Example 82] |
| – | 0.17 µM | – | CCOc1ncc(Nc2cc([C@H](CC)CC(=O)O)ccc2-c2ccc3c(c2)OC(F)(F)O3)cn1 (single isomer, unassigned) [Example 83] |
| – | 0.76 µM | – | CCOc1ncc(Nc2cc([C@H](CC)CC(=O)O)ccc2-c2ccnc(N3CCOCC3)n2)cn1 (single isomer, unassigned) [Example 84] |
| – | ≥ 1 µM | 0.25 to 2 µM | CCOc1ncc(Nc2cc([C@H](CC)CC(=O)O)ccc2-c2ccc3cncn3c2)cn1 (single isomer, unassigned) [Example 85] |
| – | ≥ 1 µM | 0.25 to 2 µM | CCOc1ncc(Nc2cc([C@H](CC)CC(=O)O)ccc2-c2ccn3ccnc3c2)cn1 (single isomer, unassigned) [Example 86] |
| – | ≥ 1 µM | 0.25 to 2 µM | CCOc1ncc(Nc2cc([C@H](CC)CC(=O)O)ccc2-c2nc(-c3ccccc3)cs2)cn1 (single isomer, unassigned) [Example 87] |
| – | 0.4 µM | – | CCOc1ncc(Nc2cc([C@H](CC)CC(=O)O)ccc2-c2nnc(C)s2)cn1 (single isomer, unassigned) [Example 89] |

| Compound | IC50 (human IDO1) | IC50 ([1]; read-out: IDO Hela IC50) | IC50 [1, 2] |
| --- | --- | --- | --- |
| (S)-3-(2-((4-cyanophenyl)amino)- -methyl- [1,1′-biphenyl]-4-yl)-4-methoxybutanoic acid [Example 37] | – | ≥ 1 µM | 0.25 to 2 µM |
